Laboratory results from patent US20220016080A1, “COMPOUNDS THAT SELECTIVELY AND EFFECTIVELY INHIBIT HAKAI-MEDIATED UBIQUITINATION, AS ANTI-CANCER DRUGS” (FUNDACIÓN PROFESOR NOVOA SANTOS, priority 2018, published 2022).

Legend:
[1] = molecular target: T1, E3 ubiquitin-ligase Hakai (Mus musculus, UniProt Q9JIY2); assay: Hakai-dependent ubiquitination of the E-cadherin complex (immunoprecipitation, 293T cells); assay type: cell-based; conditions: 293T cells transfected with Flag-Hakai, myc-E-cadherin, v-Src, HA-ubiquitin; IP with anti-E-cadherin
T1 construct: expressed in transfected cells; host or cells: HEK293T (293) cells, co-transfected with v-Src and HA-ubiquitin, and in A3 also with myc-E-cadherin
T1 sequence (Q9JIY2 1-491): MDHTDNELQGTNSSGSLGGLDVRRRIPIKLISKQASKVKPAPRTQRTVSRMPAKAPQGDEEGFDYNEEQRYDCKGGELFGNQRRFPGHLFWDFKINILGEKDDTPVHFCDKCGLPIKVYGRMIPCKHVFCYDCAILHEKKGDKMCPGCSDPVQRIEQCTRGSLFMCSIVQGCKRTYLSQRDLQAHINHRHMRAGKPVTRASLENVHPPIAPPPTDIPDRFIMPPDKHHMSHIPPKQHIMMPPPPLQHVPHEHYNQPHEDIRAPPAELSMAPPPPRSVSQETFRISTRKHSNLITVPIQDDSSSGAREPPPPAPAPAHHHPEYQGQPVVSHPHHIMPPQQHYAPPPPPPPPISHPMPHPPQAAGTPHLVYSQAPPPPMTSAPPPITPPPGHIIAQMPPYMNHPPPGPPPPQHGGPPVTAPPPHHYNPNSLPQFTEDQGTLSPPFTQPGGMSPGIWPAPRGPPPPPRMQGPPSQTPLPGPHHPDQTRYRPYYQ
Description: For immunoprecipitation experiments, 293 cells were transfected with 3 μg Src, 4 μg Flag-Hakai, and 2 μg HA-ubiquitin and 3 μg E-cadherin with Lipofectamin 2000 (Invitrogen, UK). 24 h after transfection, cells were lysed for 20 min in 1 ml of 1% Triton X-100 lysis buffer (20 mM Tris-HCl pH 7.5, 150 mM NaCl and 1% Triton X-100) containing 10 μg/ml leupeptin, 10 μg/ml aprotinin and 1 mM phenylmethanesulphonyl fluoride (PMSF), supplemented with 10 mM N-ethylmaleimide and 2.5 mM sodium orthovanadate. After centrifugation at 18.000 g for 10 min, the supernatants were immunoprecipitated for 2 h with 2 μg of anti-E-cadherin antibody bound to 60 μl of protein G PLUS-Agarose beads, followed by SDS-polyacrylamide gel electrophoresis (PAGE) and western blotting with the indicated antibodies as previously reported.

[2] = system: Hakai-MDCK cell lines (clone 4 and clone 11); assay: MTT cell viability assay, Hakai-MDCK; assay type: cell-based; conditions: both clones of Hakai-MDCK compared to MDCK; 72 h
Description: For cytotoxicity assays, 1×10^4 cells were seeded per well into a 96-well plate. After 24 h cells were treated with the indicated inhibitors for 72 h and a MTT colorimetric cell viability assay was performed following manufacturer's instructions (Sigma Aldrich, St Louis, Mo.). Absorbance was measured at 570 and 630 nm using a Multiskan Plus Reader (Nanoquant Infinite M200 Tecan Trading AG, Switzerland). Dose-response curves were designed with Graph Pad Prism Software and the half-maximal inhibitory concentration (IC50) values were calculated. Represented data are the mean±SEM of at least three independent experiments with six replicates per condition.

[3] = system: Hakai-transformed MDCK cells; assay: Phase-contrast cell phenotype, Hakai-MDCK; assay type: cell-based
Description: MDCK, HEK293T, HepG2, MCF7 and ACHN cells were cultured in Dulbecco's Modified Eagles Medium (DMEM). MDCK stably expressing Hakai cells (Hakai-MDCK) were previously reported and were growth in DMEM with G418 (800 μg/ml). […] LoVo and PC-3 cells were cultured in F-12K Medium (Kaighn's Modification of Ham's F-12 Medium) and HT-29 cells in McCoy's 5a Medium Modified. 5637 cells were cultured in RPMI medium. All culture media were supplemented with 1% penicillin/streptomycin and 10% of heat-inactivated fetal bovine serum (FBS) at 37° C. in a humidified incubator with 5% CO2. Cells were monthly tested for mycoplasma contamination and used only for 1-3 months after defrosted. LoVo and HT29 cells were authenticated with the StemElite ID system (Promega). For phase-contrast images, culture cells were photographed with a Nikon Eclipse-TI microscope.

[4] = system: LoVo cells; assay: Western blotting of EMT markers, LoVo; assay type: cell-based; conditions: 48 h
Description: (§1) For western blot analysis, cells were treated with the indicated inhibitors for 48 h and the whole cell extracts were obtained as described previously. Twenty micrograms of lysates were resolved on a 10% polyacrilamide SDS-PAGE followed by western blot analysis performed as previously described. For immunofluorescence assays cells were grown for 24 h on glass coverslips and treated with the indicated inhibitors for 48 h. Cells were fixed with 4% PFA for 15 min, permeabilized with 0.5% […] and incubated with E-cadherin antibody for 2 h. Coverslips were incubated with fluorescein-tagged secondary antibody (Dakopatts, Sweden) for […]. Finally coverslips were mounted with ProLong Gold antifade reagent (LifeTech, UK) and images were taken in epifluorescence microscope (Olympus) using 40× objective.

[5] = system: HT-29 cells; assay: Immunofluorescence of E-cadherin, HT-29; assay type: cell-based; conditions: 48 h
Description: as §1

[6] = system: LoVo cells; assay: BrdU proliferation assay, LoVo; assay type: cell-based; conditions: 48 h
Description: (§2) For BrdU assays, 1×10^4 of indicated cells were plated per well into a 96-well plate. After 24 h, cells were treated with the indicated inhibitors for 48 h. Three independent experiments were plated with six replicates per each condition. Cells were treated with […] BrdU for 2 h. BrdU incorporation into newly synthesized DNA was measured using a cell proliferation colorimetric immunoassay kit according to the manufacturer's instructions (Roche, Switzerland). Results are expressed as mean±S.D. Results are represented as percentage of positive cells (mean±S.D) of three independent experiments.

[7] = system: liver cancer HepG2 cells; assay: BrdU proliferation assay, HepG2; assay type: cell-based, human; conditions: 48 h
Description: as §2

[8] = system: LoVo cells; assay: Invasion assay, LoVo; assay type: cell-based; conditions: treated 48 h before seeding
Description: (§3) For invasion assays, cells were treated with Hakin-1 or DMSO as vehicle for 48 h using 1% FBS during the last 24 hours. 3×10^5 MDCK, MDCK-Hakai or LoVo cells were seeded in a cell invasion chamber (Cell invasion assaykit, Chemicon International) containing medium with 2% FBS. After 72 hours for MDCK and MDCK-Hakai Invasive and 16 h for LoVo cells, invasive cells invaded that reach the lower chamber containing 30% FBS were fixed and stained with crystal violet (Sigma Aldrich, St Louis, Mo.) following the manufacturer's specifications. For migration assays, HT29 cells were cultured with Hakin-1 or DMSO as vehicle for 48 h, using medium without serum the last 24 h. In the cell migration chamber were seeded 3×10^5 HT29 cells (Cell migration kit, Millipore, Bedford, Mass.) containing medium without serum. After 16 h, migrated cells in the lower chamber containing serum with 30% FBS were stained with crystal violet and counted following the manufacturer's specifications. For both invasion and migration assays cells were counted in five fields photographed with an Olympus microscope using a 20× objective, experiments were performed in triplicates for each condition and the assays were repeated at least three times. Results are expressed as mean±SD.

[9] = system: HT29 cells; assay: Migration assay, HT29; assay type: cell-based; conditions: HT-29; treated 48 h
Description: as §3

## O=C(O)c1ccc(-n2nnnc2SCC(=O)c2ccc([N+](=O)[O-])cc2)cc1 [Hakin-1, 4-(5-{[2-(4-nitrophenyl)-2-oxoethyl]thiol}-1H-tetrazol-1-yl)benzoic acid]
[1]
  Hakai-dependent ubiquitination of E-cadherin complex: reduction of Hakai-dependent ubiquitination of E-cadherin complex
[2]
  sensitivity to treatment (cell viability, MTT): more sensitive
[3]
  mesenchymal phenotype (phase contrast): induction of an epithelial phenotype
[4]
  EMT markers (western blotting): confirmed these results
[5]
  E-cadherin levels at cell-cell contacts (immunofluorescence): significant increase E-cadherin levels at cell-cell contacts
[6]
  cell proliferation (BrdU): reduced cell proliferation
[7]
  cell proliferation (BrdU): inhibits cell proliferation
[8]
  cell invasion: strongly reduced cell invasion
[9]
  cell migration: important reduction of cell migration
